Experimental data: patent publication EP1806348A2, “Pyrido (2,3-D)Pyrimidines as inhibitors of cellular proliferation” (Warner-Lambert Company LLC, priority 1997, dated 1998)

Key:
Assay type in all cases: biochemical
[1] = target: T1, mouse PDGF-β receptor tyrosine kinase (Mus musculus, UniProt P05622); test: PDGF receptor tyrosine kinase assay; conditions: Table 3
T1 construct: amplify a fragment of DNA that codes for the intracellular tyrosine kinase domain; made in house; host or cells: SF9 insect cells (baculovirus)
Excerpt: (§1) Full-length cDNAs for the mouse PDGF-β and human FGF-1 (flg) receptor tyrosine kinases were obtained from J. Escobedo and prepared as described in J. Biol. Chem., 1991;262:1482-1487. PCR primers were designed to amplify a fragment of DNA that codes for the intracellular tyrosine kinase domain. The fragment was inserted into a baculovirus vector, cotransfected with AcMNPV DNA, and the recombinant virus isolated. SF9 insect cells were infected with the virus to overexpress the protein, and the cell lysate was used for the assay. Assays were performed in 96-well plates (100 µL/incubation/well), and conditions were optimized to measure the incorporation of ^32P from γ^32P-ATP into a glutamate-tyrosine co-polymer substrate. Briefly, to each well was added 82.5 µL of incubation buffer containing 25 mM Hepes (pH 7.0), 150 mM NaCl, 0.1% Triton X-100, 0.2 mM PMSF, 0.2 mM Na3VO4, 10 mM MnCl2, and 750 µg/mL of Poly (4:1) glutamate-tyrosine followed by […] of inhibitor and 5 µL of enzyme lysate (7.5 µg/µL FGF-TK or 6.0 µg/µL PDGF-TK) to initiate the reaction. Following a 10 minute incubation at 25°C, […] of γ^32P-ATP (0.4 µCi plus 50 µM ATP) was added to each well, and samples were incubated for an additional 10 minutes at 25°C. The reaction was terminated by the addition of 100 µL of 30% trichloroacetic acid (TCA) containing 20 mM sodium pyrophosphate and precipitation of material onto glass fiber mats (Wallac). Filters were washed three times with 15% TCA containing 100 mM sodium pyrophosphate, and the radioactivity retained on the filters counted in a Wallac 1250 Betaplate reader. Nonspecific activity was defined as radioactivity retained on the filters following incubation of samples with buffer alone (no enzyme). Specific enzymatic activity (enzyme plus buffer) was defined as total activity minus nonspecific activity. […]

[2] = target: T2, human FGF-1 (flg) receptor tyrosine kinase (Homo sapiens, UniProt P11362); test: FGF receptor tyrosine kinase assay; conditions: Table 3
T2 construct: amplify a fragment of DNA that codes for the intracellular tyrosine kinase domain; made in house; host or cells: SF9 insect cells (baculovirus)
Excerpt: as §1

c-Src = c-Src (Homo sapiens, UniProt P12931); test: c-Src protein kinase assay; conditions: Table 5
Experimental: C-Src kinase was purified from baculovirus infected insect cell lysates using an antipeptide monoclonal antibody directed against the N-terminal amino acids (amino acids 2-17) of c-Src. The antibody, covalently linked to 0.65 µm latex beads, was added to a suspension of insect cell lysis buffer comprised of 150 mM NaCl, 50 mM Tris pH 7.5, 1 mM DTT, 1% NP-40,2 mM EGTA, 1 mM sodium vanadate, 1 mM PMSF, 1 µg/mL each of leupeptin, pepstatin, and aprotinin. Insect cell lysate containing c-Src protein was incubated with these beads for 3 to 4 hours at 4°C with rotation. At the end of the lysate incubation, the beads were rinsed three times in lysis buffer, resuspended in lysis buffer containing 10% glycerol, and frozen. These latex beads were thawed, rinsed three times in assay buffer (40 mM Tris, pH 7.5, […]) and suspended in the same buffer. In a Millipore 96-well plate with a 0.65 µm polyvinylidine membrane bottom were added the reaction components: 10 µL c-Src beads, 10 µL of 2.5 mg/mL poly GluTyr substrate, 5 µM ATP containing 0.2 µCi labeled ^32P-ATP, 5 µL DMSO containing inhibitors or as a solvent control, and buffer to make the final volume 125 µL. The reaction was started at room temperature by addition of the ATP and quenched 10 minutes later by the addition of 125 µL of 30% TCA, 0.1 M sodium pyrophosphate for 5 minutes on ice. […] The filters were then punched, counted in a liquid scintillation counter, and the data examined for inhibitory activity in comparison to a known inhibitor such as erbstatin. […]

cdk4/D = cdk4/D (Homo sapiens, UniProt P11802); test: Cyclin-dependent kinase 4 (cdk4) enzyme assay, 32P incorporation into retinoblastoma; conditions: Table 1; 25 µM ATP, retinoblastoma substrate
Experimental: A typical assay, for instance, measures inhibitory activity against the cyclin D dependent kinase 4 enzyme (cdk4/D). […] The cdk 4 assay was carried out as follows.
(§2) All components except the ATP were added to the wells, and the plate was placed on a plate mixer for 2 minutes. […] The reaction was terminated by addition of 0.1 mL of 20% trichloroacetic acid (TCA). The plate was kept at 4°C for at least 1 hour to allow the substrate to precipitate. The wells were then washed five times with 0.2 mL of 10% TCA and ^32P incorporation was determined with a beta plate counter (Wallac Inc., Gaithersburg, MD).

cdk2/cyclinE = cdk2/cyclinE (Homo sapiens, UniProt P24941); test: Cyclin-dependent kinase assay (cdk2/cyclinE); conditions: Table 1; read-out: cdk2/E IC50
Experimental: as §2, with “TCA.” for “trichloroacetic acid (TCA).”, “incorporation” for “incorporation was”

cdk2/cyclinA = cdk2/cyclinA (Homo sapiens, UniProt P24941); test: Cyclin-dependent kinase assay (cdk2/cyclinA); conditions: Table 1
Experimental: as §2, with “TCA.” for “trichloroacetic acid (TCA).”, “incorporation” for “incorporation was”

cdc2/cyclinB = cdc2/cyclinB (Homo sapiens, UniProt P06493); test: Cyclin-dependent kinase assay (cdc2/cyclinB); conditions: Table 1; read-out: cdk1/B IC50
Experimental: as §2, with “TCA.” for “trichloroacetic acid (TCA).”, “incorporation” for “incorporation was”

cdk6/D2 = cdk6/D2 (Homo sapiens, UniProt Q00534); test: cdk6/D2 enzyme assay, similar to cdk4 assay; conditions: read-out: IC50 against cdk6/D2
Experimental: (§3) The total volume was 0.1 mL containing a final concentration of 20 mM TRIS (tris[hydroxymethyl]aminomethane), at pH 7.4, 50 mM NaCl, 1 mM dithiothreitol, 10 mM MgCl2, 25 µM ATP containing 0.25 µCi of [^32P]ATP, 20 ng of cdk4, 1 µg of retinoblastoma, and appropriate dilutions of a compound of the present invention. All components except the ATP were added to the wells, and the plate was placed on a plate mixer for 2 minutes. The reaction was started by adding [^32P]ATP and the plate was incubated at 25°C for 15 minutes. The reaction was terminated by addition of 0.1 mL of 20% trichloroacetic acid (TCA). The plate was kept at 4°C for at least 1 hour to allow the substrate to precipitate. The wells were then washed five times with 0.2 mL of 10% TCA and ^32P incorporation was determined with a beta plate counter (Wallac Inc., Gaithersburg, MD).
(§4) Several of the invention compounds have also shown good inhibitory activity against cdk6/D2 and cdk6/D3 enzymes. These assays are carried out in a manner similar to that described above for cdk4, by simply employing the appropriate cdk6 kinase enzyme.

cdk6/D3 = cdk6/D3 (Homo sapiens, UniProt Q00534); test: cdk6/D3 enzyme assay, similar to cdk4 assay; conditions: read-out: IC50 against cdk6/D3
Experimental: as §3, §4

T1 sequence (P05622 599-961 limits assumed): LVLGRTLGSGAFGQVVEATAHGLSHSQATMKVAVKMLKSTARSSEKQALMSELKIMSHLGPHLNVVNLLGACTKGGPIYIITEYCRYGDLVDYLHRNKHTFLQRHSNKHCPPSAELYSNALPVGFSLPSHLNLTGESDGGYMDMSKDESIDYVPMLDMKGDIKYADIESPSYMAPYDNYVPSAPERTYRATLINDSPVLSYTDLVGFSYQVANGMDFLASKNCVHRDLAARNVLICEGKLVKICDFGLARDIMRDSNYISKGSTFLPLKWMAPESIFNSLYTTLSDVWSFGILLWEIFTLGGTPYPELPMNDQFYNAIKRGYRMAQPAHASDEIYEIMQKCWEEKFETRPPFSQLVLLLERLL
c-Src, sequence (P12931 whole entry, the tested form may be a part): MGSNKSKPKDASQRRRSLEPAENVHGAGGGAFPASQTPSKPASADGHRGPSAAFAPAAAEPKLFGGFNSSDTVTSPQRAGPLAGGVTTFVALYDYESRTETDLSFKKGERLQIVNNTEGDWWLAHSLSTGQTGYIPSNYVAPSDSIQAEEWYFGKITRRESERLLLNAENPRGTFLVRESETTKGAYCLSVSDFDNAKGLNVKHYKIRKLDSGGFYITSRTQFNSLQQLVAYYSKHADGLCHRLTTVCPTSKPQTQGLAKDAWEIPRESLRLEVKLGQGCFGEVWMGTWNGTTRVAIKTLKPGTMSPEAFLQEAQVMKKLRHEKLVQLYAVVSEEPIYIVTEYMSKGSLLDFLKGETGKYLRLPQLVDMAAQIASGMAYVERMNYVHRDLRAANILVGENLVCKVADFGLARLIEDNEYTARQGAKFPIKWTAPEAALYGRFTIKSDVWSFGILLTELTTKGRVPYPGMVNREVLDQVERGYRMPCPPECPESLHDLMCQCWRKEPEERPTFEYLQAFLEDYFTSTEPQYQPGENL
T2 sequence (P11362 478-767 limits assumed): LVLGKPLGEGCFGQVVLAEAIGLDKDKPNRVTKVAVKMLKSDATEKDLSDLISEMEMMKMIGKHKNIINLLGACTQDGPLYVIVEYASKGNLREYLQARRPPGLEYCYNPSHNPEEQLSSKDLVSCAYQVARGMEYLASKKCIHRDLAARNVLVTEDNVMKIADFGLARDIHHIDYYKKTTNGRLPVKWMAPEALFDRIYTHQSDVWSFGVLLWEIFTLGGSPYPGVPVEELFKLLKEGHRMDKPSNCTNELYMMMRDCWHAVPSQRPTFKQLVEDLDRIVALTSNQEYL
cdk4/D, sequence (P11802 whole entry): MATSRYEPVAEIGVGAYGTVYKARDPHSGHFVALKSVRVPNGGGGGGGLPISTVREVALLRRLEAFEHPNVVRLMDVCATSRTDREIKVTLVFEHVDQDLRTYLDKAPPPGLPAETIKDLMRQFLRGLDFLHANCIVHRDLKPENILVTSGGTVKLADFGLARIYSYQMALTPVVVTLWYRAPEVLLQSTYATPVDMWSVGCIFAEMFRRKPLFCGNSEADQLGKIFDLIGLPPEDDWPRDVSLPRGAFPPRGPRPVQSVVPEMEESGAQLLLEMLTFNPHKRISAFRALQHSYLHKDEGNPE
cdk4/D, sequence (P24385 whole entry, further chain): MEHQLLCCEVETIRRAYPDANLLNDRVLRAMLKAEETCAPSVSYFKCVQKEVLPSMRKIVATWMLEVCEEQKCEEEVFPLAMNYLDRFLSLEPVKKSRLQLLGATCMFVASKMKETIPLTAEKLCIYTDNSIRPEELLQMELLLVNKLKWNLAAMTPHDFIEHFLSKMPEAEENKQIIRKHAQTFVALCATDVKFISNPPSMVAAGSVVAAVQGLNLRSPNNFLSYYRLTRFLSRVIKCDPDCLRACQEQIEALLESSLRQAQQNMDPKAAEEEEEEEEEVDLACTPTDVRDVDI
cdc2/cyclinB, sequence (P06493 whole entry): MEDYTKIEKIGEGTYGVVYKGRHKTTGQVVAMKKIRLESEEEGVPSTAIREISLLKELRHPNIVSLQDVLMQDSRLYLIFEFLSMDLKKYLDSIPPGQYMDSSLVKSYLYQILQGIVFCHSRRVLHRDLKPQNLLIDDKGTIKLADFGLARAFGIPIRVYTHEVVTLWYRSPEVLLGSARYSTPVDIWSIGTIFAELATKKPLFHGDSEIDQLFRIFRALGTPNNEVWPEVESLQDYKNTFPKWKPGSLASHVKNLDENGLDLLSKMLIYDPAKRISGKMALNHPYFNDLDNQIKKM
cdc2/cyclinB, sequence (P14635 whole entry, further chain): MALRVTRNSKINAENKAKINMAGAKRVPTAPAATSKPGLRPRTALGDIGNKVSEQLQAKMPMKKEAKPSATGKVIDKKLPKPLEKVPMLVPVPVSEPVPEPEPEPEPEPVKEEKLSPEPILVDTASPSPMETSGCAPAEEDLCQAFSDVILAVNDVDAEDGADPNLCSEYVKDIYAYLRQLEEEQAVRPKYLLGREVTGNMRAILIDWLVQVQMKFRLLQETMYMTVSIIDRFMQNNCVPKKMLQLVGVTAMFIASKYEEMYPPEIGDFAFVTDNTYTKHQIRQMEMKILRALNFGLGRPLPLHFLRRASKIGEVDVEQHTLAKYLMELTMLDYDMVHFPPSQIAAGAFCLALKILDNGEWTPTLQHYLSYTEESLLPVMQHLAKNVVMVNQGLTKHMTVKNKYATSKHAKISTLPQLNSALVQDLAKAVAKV
cdk6/D2, sequence (Q00534 whole entry): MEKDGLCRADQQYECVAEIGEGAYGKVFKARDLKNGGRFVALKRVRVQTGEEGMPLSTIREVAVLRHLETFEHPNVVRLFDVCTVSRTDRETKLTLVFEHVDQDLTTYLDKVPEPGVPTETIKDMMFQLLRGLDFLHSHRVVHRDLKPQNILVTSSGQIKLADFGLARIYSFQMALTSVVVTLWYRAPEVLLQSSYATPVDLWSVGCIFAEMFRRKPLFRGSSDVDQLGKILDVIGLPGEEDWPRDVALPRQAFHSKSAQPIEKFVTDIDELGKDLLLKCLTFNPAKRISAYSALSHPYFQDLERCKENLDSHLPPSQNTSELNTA
cdk6/D2, sequence (P30279 whole entry, further chain): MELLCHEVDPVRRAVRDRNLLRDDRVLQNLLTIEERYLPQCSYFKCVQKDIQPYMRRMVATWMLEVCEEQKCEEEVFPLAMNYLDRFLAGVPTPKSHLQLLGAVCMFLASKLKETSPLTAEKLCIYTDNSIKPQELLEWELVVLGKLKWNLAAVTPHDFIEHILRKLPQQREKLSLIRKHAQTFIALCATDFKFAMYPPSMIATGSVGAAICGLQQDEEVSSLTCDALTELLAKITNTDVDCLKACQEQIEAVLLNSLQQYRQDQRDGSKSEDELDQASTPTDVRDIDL
cdk6/D3, sequence (P30281 whole entry): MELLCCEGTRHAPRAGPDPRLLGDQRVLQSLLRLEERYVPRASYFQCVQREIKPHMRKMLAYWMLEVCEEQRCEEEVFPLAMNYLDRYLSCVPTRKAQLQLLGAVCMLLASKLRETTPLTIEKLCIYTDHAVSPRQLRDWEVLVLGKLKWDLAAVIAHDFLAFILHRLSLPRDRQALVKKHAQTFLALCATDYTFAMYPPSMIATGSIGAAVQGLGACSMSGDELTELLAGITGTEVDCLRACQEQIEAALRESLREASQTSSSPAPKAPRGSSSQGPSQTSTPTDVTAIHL
cdk6/D3, sequence (Q00534 whole entry): as the sequence (Q00534 whole entry) above

O=c1ccc2cnc(Nc3ccc(N4CCC(CCO)CC4)cc3)nc2n1C1CCCC1 [Example 196, 8-Cyclopentyl-2-{4-[4-(2-hydroxy-ethyl)-piperidin-1-yl]-phenylamino}-8H-pyrido[2,3-d]pyrimidin-7-one]
IC50 [1]: 1060 nM
IC50 [2]: 1450 nM

CC1CC(C)CN(c2ccc(Nc3ncc4ccc(=O)n(C5CCCCC5)c4n3)cc2)C1 (stereo not shown) [Example 167, 8-Cyclohexyl-2-[4-(3,5-dimethyl-piperidin-1-yl)-phenylamino]-8H-pyrido[2,3-d]pyrimidin-7-one]
IC50 [1]: 33100 nM
IC50 [2]: 20600 nM

CN1CCN(c2ccc(Nc3ncc4ccc(=O)n(CCCOCc5ccccc5)c4n3)cc2)CC1 [Example 115, 8-(3-Benzyloxy-propyl)-2-[4-(4-methyl-piperazin-1-yl)-phenylamino]-8H-pyrido[2,3-d]pyrimidin-7-one]
IC50 (c-Src): 545 nM

CCN(CC)CCOc1ccc(Nc2ncc3ccc(=O)n(C(C)C)c3n2)cc1 [Example 59, 2-[4-(2-Diethylaminoethoxy)-phenylamino]-8-isopropyl-8H-pyrido[2,3-d]pyrimidin-7-one]
IC50 (cdk4/D): 45 nM
IC50 (cdk2/cyclinE): 800 nM
IC50 (cdk2/cyclinA): 80 nM
IC50 (cdc2/cyclinB): 1240 nM
IC50 (c-Src): 4430 nM

O=c1ccc2cnc(Nc3ccccc3)nc2n1C1CCCCC1 [Example 131, 8-Cyclohexyl-2-phenylamino-8H-pyrido[2,3-d]pyrimidin-7-one]
IC50 (cdk4/D): 47 nM
IC50 (cdk2/cyclinE): 125 nM
IC50 (cdk2/cyclinA): 79 nM
IC50 (cdc2/cyclinB): 749 nM
IC50 [1]: 16100 nM
IC50 [2]: 12400 nM

CC(C)Cn1c(=O)ccc2cnc(Nc3ccccc3)nc21 [Example 42, 8-Isobutyl-2-phenylamino-8H-pyrido[2,3-d]pyrimidin-7-one]
IC50 (cdk4/D): 400 nM
IC50 [1]: 3690 nM
IC50 [2]: 4060 nM

CCN(CC)CCOc1ccc(Nc2ncc3ccc(=O)n(C4CCCCC4)c3n2)cc1C [Example 150, 8-Cyclohexyl-2-[4-(2-diethylamino-ethoxy)-3-methyl-phenylamino]-8H-pyrido[2,3-d]pyrimidin-7-one]
IC50 [1]: 99 nM
IC50 [2]: 99 nM

O=c1ccc2cnc(Nc3ccccc3)nc2n1-c1ccccc1 [Example 101, 2-Phenylamino-8-phenyl-8H-pyrido[2,3-d]pyrimidin-7-one]
IC50 (cdk4/D): 1700 nM
IC50 (c-Src): 21200 nM

O=c1ccc2cnc(Nc3ccc(-n4cccn4)cc3)nc2n1C1CCCCC1 [Example 162, 8-Cyclohexyl-2-(4-pyrazol-1-yl-phenylamino)-8H-pyrido[2,3-d]pyrimidin-7-one]
IC50 [1]: 17100 nM
IC50 [2]: 19700 nM

CCCn1c(=O)ccc2cnc(Nc3ccccc3)nc21 [Example 41, 2-Phenylamino-8-propyl-8H-pyrido[2,3-d]pyrimidin-7-one]
IC50 (cdk4/D): 550 nM
IC50 (cdk2/cyclinE): 112 nM
IC50 (cdk2/cyclinA): 50 nM
IC50 (cdc2/cyclinB): 299 nM
IC50 [1]: 4960 nM
IC50 [2]: 6600 nM

O=c1ccc2cnc(Nc3ccc(N4CCC(O)CC4)cc3)nc2n1C1CCCC1 [Example 198, 8-Cyclopentyl-2-[4-(4-hydroxy-piperidin-1-yl)-phenylamino]-8H-pyrido[2,3-d]pyrimidin-7-one]
IC50 (c-Src): 1100 nM

O=c1ccc2cnc(Nc3ccc(N4CCC(CCCO)CC4)cc3)nc2n1C1CC2CCC1C2 (stereo not shown) [Example 214, 8-Bicyclo[2.2.1]hept-2-yl-2-{4-[4-(3-hydroxy-propyl)-piperidin-1-yl]-phenylamino}-8H-pyrido[2,3-d]pyrimidin-7-one]
IC50 (cdk6/D2): 7.1 nM
IC50 (cdk6/D3): 13 nM

O=c1ccc2cnc(Nc3ccccc3)nc2n1C1CC2CCC1C2 (stereo not shown) [Example 180, 8-Bicyclo[2.2.1]hept-2-yl-2-phenylamino-8H-pyrido[2,3-d]pyrimidin-7-one]
IC50 (cdk4/D): 38 nM
IC50 (cdk2/cyclinE): 173 nM
IC50 (cdk2/cyclinA): 75 nM
IC50 (cdc2/cyclinB): 503 nM
IC50 [1]: 27800 nM
IC50 [2]: 12000 nM

CCCCn1c(=O)ccc2cnc(Nc3ccccc3)nc21 [Example 40, 8-Butyl-2-phenylamino-8H-pyrido[2,3-d]pyrimidin-7-one]
IC50 (cdk4/D): 1490 nM
IC50 (cdk2/cyclinE): 58 nM
IC50 (cdk2/cyclinA): 37 nM
IC50 (cdc2/cyclinB): 205 nM
IC50 (c-Src): 19500 nM

CCn1c(=O)ccc2cnc(Nc3ccccc3)nc21 [Example 18, 8-Ethyl-2-phenylamino-8H-pyrido[2,3-d]pyrimidin-7-one]
IC50 (cdk4/D): 752 nM
IC50 (cdk2/cyclinE): 410 nM
IC50 (cdk2/cyclinA): 129 nM
IC50 (cdc2/cyclinB): 1020 nM
IC50 [1]: 1780 nM
IC50 [2]: 3300 nM

CCN(CC)CCOc1ccc(Nc2ncc3ccc(=O)n(CC)c3n2)cc1 [Example 52, 2-[4-(2-Diethylaminoethoxy)-phenylamino]-8-ethyl-8H-pyrido[2,3-d]pyrimidin-7-one]
IC50 (cdk4/D): 160 nM
IC50 (cdk2/cyclinE): 2340 nM
IC50 (cdk2/cyclinA): 750 nM
IC50 (cdc2/cyclinB): 2660 nM
IC50 (c-Src): 1030 nM

O=c1ccc2cnc(Nc3ccccc3)nc2n1C1CCCC1 [Example 108, 8-Cyclopentyl-2-phenylamino-8H-pyrido[2,3-d]pyrimidin-7-one]
IC50 (cdk4/D): 210 nM
IC50 (cdk2/cyclinE): 110 nM
IC50 (cdk2/cyclinA): 12 nM
IC50 (cdc2/cyclinB): 190 nM
IC50 [1]: 4180 nM
IC50 [2]: 2980 nM

CCn1c(=O)ccc2cnc(Nc3ccncc3)nc21 [Example 50, 8-Ethyl-2-(pyridin-4-ylamino)-8H-pyrido[2,3-d]pyrimidin-7-one]
IC50 (cdk4/D): 2000 nM
IC50 (c-Src): 15000 nM
